Measurements as given in the kinase profiling compilation of Christmann-Franck et al. (2016).

Key:
Test in all cases: radiometric filter-binding kinase assay, Kinase HotSpot
Details in all cases: compound 0.5 µM; ATP 10 µM
[1] = target: SLK (human) (UniProt Q9H2G2)
[2] = target: NTRK3 (human) (UniProt Q16288)
[3] = target: SGK2 (human) (UniProt Q9HBY8)
[4] = target: MAPKAPK2 (human) (UniProt P49137)
[5] = target: HIPK4 (human) (UniProt Q8NE63)
[6] = target: STK10 (human) (UniProt O94804)
[7] = target: GRK7 (human) (UniProt Q8WTQ7)
Sequence of GRK7 (human) (Q8WTQ7 whole entry, looked up): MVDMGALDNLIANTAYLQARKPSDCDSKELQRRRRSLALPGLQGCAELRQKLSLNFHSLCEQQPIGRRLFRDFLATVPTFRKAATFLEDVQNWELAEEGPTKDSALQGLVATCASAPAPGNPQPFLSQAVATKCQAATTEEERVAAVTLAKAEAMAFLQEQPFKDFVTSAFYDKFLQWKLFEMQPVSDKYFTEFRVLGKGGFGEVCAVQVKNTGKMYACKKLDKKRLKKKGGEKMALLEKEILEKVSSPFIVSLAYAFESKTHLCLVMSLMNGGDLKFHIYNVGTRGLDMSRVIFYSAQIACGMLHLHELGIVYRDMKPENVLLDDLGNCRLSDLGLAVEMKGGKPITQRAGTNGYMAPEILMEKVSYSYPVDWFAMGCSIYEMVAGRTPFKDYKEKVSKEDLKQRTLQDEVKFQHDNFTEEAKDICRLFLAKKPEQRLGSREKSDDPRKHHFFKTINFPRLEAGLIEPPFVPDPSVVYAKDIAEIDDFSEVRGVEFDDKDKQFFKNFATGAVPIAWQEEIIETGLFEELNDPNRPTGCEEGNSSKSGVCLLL

[8] = target: FGR (human) (UniProt P09769)
[9] = target: MAP3K2 (human) (UniProt Q9Y2U5)
[10] = target: CDK9 CCNT1 (human) (UniProt P50750+O60563)
[11] = target: NEK1 (human) (UniProt Q96PY6)
[12] = target: CDK5 CDK5R1 p35 (human) (UniProt Q00535+Q15078)
[13] = target: PLK3 (human) (UniProt Q9H4B4)
[14] = target: FGFR4 (human) (UniProt P22455)
[15] = target: VRK1 (human) (UniProt Q99986)
[16] = target: FLT1 (human) (UniProt P17948)
[17] = target: MAP4K5 (human) (UniProt Q9Y4K4)
[18] = target: IRAK4 (human) (UniProt Q9NWZ3)
[19] = target: STK4 (human) (UniProt Q13043)
[20] = target: HIPK1 (human) (UniProt Q86Z02)
Sequence of HIPK1 (human) (Q86Z02 whole entry, looked up): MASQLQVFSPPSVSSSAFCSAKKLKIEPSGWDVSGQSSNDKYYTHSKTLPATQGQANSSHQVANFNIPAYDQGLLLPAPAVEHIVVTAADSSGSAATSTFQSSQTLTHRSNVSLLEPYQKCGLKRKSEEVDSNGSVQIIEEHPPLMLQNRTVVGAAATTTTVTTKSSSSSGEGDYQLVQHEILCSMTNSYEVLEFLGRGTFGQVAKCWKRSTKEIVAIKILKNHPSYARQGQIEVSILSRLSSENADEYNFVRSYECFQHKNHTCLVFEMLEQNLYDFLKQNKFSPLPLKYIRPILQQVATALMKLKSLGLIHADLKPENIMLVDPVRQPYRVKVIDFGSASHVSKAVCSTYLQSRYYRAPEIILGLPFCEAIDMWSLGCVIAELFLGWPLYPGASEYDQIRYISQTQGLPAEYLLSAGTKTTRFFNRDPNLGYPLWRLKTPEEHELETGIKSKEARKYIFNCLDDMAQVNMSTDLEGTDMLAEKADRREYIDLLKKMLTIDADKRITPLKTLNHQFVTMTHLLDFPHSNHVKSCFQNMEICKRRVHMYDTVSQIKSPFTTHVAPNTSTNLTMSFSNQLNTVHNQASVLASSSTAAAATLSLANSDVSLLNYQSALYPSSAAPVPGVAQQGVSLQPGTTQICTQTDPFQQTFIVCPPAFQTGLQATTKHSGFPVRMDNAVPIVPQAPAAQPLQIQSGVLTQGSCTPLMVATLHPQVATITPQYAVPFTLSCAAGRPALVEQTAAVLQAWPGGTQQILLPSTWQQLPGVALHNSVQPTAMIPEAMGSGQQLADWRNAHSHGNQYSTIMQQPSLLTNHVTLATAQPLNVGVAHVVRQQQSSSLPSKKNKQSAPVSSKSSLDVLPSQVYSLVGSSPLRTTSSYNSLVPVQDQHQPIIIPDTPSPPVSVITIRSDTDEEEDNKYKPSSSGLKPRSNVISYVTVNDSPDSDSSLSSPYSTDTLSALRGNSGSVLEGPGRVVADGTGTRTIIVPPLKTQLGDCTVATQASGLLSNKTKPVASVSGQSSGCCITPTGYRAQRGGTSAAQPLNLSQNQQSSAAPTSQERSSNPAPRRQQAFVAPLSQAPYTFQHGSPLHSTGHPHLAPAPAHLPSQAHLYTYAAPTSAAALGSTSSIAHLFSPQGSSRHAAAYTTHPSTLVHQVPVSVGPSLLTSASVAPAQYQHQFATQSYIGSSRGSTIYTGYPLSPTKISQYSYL

[21] = target: MAP3K11 (human) (UniProt Q16584)
[22] = target: RAF1 (human) (UniProt P04049)
Sequence of RAF1 (human) (P04049 whole entry, looked up): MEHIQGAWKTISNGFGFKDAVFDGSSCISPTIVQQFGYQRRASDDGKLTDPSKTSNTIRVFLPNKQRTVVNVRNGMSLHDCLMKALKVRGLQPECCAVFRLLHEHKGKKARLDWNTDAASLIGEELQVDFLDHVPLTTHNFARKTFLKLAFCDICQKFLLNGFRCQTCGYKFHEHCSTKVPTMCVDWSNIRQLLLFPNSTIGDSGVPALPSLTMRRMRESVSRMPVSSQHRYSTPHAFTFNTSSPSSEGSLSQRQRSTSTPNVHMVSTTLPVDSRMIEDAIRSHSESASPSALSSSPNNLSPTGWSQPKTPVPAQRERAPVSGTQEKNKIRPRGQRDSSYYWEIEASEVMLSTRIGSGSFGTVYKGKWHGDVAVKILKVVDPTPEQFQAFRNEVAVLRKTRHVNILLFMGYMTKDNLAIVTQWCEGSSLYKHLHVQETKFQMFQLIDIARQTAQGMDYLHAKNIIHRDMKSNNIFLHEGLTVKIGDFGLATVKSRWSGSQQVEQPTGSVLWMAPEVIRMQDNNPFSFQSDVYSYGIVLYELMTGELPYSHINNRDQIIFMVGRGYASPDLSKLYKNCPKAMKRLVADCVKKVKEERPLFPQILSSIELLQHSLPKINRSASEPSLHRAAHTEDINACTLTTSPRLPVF

[23] = target: NTRK1 (human) (UniProt P04629)
[24] = target: SGK3 (human) (UniProt Q96BR1)
[25] = target: PNCK (human) (UniProt Q6P2M8)
Sequence of PNCK (human) (Q6P2M8 whole entry, looked up): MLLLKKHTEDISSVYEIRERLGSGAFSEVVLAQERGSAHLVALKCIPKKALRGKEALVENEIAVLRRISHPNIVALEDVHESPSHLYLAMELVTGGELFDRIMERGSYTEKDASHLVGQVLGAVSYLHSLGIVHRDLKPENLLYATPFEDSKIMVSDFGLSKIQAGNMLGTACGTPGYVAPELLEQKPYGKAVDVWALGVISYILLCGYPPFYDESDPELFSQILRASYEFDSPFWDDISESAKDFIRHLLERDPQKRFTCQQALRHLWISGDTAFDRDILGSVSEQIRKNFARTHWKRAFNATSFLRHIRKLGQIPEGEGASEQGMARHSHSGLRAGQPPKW

[26] = target: HIPK3 (human) (UniProt Q9H422)
Sequence of HIPK3 (human) (Q9H422 whole entry, looked up): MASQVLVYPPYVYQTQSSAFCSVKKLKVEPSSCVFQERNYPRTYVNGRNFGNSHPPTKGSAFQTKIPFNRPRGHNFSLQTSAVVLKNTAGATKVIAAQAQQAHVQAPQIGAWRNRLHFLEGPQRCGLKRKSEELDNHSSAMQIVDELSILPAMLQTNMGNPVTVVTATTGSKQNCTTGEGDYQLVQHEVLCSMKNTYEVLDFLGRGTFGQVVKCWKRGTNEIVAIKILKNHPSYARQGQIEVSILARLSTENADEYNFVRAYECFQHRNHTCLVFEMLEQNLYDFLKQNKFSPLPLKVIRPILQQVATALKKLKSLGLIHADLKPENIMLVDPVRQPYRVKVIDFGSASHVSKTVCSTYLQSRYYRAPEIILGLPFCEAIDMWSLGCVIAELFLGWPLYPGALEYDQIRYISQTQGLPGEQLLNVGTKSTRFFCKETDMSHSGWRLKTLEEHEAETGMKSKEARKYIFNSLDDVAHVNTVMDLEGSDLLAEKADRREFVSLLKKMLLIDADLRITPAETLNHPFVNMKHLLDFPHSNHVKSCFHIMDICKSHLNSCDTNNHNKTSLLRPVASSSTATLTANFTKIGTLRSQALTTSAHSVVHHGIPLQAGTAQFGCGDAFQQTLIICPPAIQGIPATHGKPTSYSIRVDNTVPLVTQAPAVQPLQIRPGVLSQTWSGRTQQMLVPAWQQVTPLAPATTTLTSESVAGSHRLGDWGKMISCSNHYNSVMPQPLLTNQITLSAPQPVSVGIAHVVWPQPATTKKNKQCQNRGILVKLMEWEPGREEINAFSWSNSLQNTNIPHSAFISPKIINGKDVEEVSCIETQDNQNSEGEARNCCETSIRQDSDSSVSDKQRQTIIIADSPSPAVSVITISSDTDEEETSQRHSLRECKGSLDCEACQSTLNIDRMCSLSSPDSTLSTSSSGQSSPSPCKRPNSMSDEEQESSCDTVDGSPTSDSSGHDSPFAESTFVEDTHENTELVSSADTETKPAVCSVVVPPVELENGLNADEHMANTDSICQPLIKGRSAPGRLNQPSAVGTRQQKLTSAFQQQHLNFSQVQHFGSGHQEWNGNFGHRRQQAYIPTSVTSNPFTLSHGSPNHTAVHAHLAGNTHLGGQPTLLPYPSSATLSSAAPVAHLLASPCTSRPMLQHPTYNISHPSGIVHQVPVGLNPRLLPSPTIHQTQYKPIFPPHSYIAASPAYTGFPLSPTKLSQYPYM

[27] = target: PRKCH (human) (UniProt P24723)
[28] = target: TAOK3 (human) (UniProt Q9H2K8)
[29] = target: TEK (human) (UniProt Q02763)
[30] = target: SYK (human) (UniProt P43405)
[31] = target: MAP3K3 (human) (UniProt Q99759)
[32] = target: TNK2 (human) (UniProt Q07912)
[33] = target: CDK9 CCNK (human) (UniProt O75909+P50750)
[34] = target: WEE1 (human) (UniProt P30291)
Sequence of WEE1 (human) (P30291 whole entry, looked up): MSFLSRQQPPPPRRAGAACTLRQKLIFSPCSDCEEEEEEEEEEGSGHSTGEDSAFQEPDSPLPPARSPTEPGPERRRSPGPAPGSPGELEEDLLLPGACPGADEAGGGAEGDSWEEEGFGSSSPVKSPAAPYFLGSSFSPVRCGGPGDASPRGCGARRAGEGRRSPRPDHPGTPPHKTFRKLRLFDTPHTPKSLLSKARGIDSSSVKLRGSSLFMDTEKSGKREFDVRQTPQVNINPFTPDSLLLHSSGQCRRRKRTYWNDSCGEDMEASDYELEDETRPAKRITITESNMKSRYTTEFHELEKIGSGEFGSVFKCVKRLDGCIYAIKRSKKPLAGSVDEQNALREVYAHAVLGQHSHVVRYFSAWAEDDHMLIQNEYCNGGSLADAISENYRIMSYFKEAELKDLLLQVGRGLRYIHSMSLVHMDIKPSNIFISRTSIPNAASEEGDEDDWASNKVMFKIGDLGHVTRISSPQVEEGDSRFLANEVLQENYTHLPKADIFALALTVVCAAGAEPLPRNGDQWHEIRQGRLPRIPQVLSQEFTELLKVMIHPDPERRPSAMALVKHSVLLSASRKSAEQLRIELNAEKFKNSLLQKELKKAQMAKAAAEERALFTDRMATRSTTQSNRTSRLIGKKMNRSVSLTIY

[35] = target: RPS6KB1 (human) (UniProt P23443)
[36] = target: AURKC (human) (UniProt Q9UQB9)
[37] = target: MAP3K8 (human) (UniProt P41279)
[38] = target: CLK1 (human) (UniProt P49759)
[39] = target: CAMK1D (human) (UniProt Q8IU85)
[40] = target: PAK2 (human) (UniProt Q13177)
[41] = target: CSNK1E (human) (UniProt P49674)
[42] = target: AURKA (human) (UniProt O14965)
Sequence of AURKA (human) (O14965 whole entry, looked up): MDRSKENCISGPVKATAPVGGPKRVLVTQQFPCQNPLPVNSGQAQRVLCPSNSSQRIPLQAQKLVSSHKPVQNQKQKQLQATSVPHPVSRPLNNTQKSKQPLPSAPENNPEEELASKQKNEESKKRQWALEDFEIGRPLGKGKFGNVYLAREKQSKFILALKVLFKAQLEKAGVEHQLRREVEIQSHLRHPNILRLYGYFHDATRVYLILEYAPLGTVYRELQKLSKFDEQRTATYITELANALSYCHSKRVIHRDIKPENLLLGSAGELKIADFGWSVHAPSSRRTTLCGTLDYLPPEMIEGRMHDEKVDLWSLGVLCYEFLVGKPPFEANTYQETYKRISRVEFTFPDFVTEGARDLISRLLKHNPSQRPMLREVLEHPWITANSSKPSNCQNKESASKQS

NC(=O)c1ccc(N(C(N)=O)c2c(F)cccc2F)nc1-c1ccc(F)cc1F showed a residual activity [1] of 90.7%, a residual activity [2] of 95.9% and a residual activity [3] of 107%. For the same compound, the residual activity [4] was 98.9%, the residual activity [5] was 90.5% and the residual activity [6] was 93.8%. The residual activity [7] was 108%, the residual activity [8] was 94.7% and the residual activity [9] was 122%. It also gave a residual activity [10] of 96.7%, a residual activity [11] of 69.6% and a residual activity [12] of 99.9%. For the same compound, the residual activity [13] was 94.7%, the residual activity [14] was 96.2% and the residual activity [15] was 104%. The residual activity [16] was 102%, the residual activity [17] was 98.3% and the residual activity [18] was 87.5%. For the same compound, the residual activity [19] was 101%, the residual activity [20] was 100% and the residual activity [21] was 105%. It also gave a residual activity [22] of 97.5%, a residual activity [23] of 96.3% and a residual activity [24] of 99.9%. It also gave a residual activity [25] of 108%, a residual activity [26] of 98.4% and a residual activity [27] of 112%. For the same compound, the residual activity [28] was 95.7%, the residual activity [29] was 96.7% and the residual activity [30] was 110%. It also gave a residual activity [31] of 118%, a residual activity [32] of 96.1% and a residual activity [33] of 106%. For the same compound, the residual activity [34] was 101%, the residual activity [35] was 100% and the residual activity [36] was 83.8%. For the same compound, the residual activity [37] was 94.3%, the residual activity [38] was 108% and the residual activity [39] was 114%. For the same compound, the residual activity [40] was 101%, the residual activity [41] was 98.2% and the residual activity [42] was 86.4%.
